# According to patent publication US20110028445A1, “Urea derivatives of benzomorphanes and related scaffolds, medicaments containing such compounds and their use” (BOEHRINGER INGELHEIM INTERNATIONAL GMBH, priority 2008, published 2011):
# Molecular target: T1, 11β-HSD1 (Homo sapiens, UniProt P28845)
# T1 construct: detecting cortisol generated from cortisterone by human liver microsomes; from tissue; host or cells: human liver microsomes
# Assay: In vitro inhibition of 11β-HSD1, HTRF detection of cortisol generated by human liver microsomes
# Assay type: biochemical
# Conditions: compound concentration 1 μM, 100% indicates no inhibition, zero or below zero indicates complete inhibition, cortisone 80 nM, 1 hour at 37° C., read-out: % CTL at 1 μM
# Protocol: Briefly, compounds were incubated for 1 hour at 37° C. in Tris buffer (20 mM tris, 5 mM EDTA, pH 6.0) containing NADPH (200 μM) and cortisone (80 nM). Cortisol generated in the reaction is then detected with a competitive immunoassay, involving two HTRF conjugates: cortisol linked to XL665 and anti-cortisol antibody labeled with Europium cryptate. The incubation period for detection reaction was typically 2 hours. The amount of cortisol is determined by reading the time-resolved fluorescence of the wells (Ex 320/75 nm; Em 615/8.5 nm and 665/7.5 nm). The ratio of the two emission signals is then calculated (Em665*10000/Em615). […] Each assay also contained a calibration curve with cortisol to transform the fluorescent data into cortisol concentrations. Percent inhibition of each compound was determined relative to the carbenoxolone signal and IC50 curves were generated.
# The % CTL values of some example compounds at a concentration of 1 μM are provided in the following Table 2 wherein 100% indicates no inhibition and a value of zero or below zero indicates complete inhibition. The measurement of % CTL is described hereinbefore.
# T1 sequence (P28845 whole entry): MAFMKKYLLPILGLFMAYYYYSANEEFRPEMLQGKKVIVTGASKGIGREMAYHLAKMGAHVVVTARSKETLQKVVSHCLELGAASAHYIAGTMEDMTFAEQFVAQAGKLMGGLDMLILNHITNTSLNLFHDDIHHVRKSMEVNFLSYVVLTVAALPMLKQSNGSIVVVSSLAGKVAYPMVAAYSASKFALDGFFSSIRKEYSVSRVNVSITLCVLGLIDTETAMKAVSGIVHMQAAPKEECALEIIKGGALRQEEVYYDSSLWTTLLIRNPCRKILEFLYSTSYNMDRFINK
row,Compound,remaining activity at 1 µM [%]
1,CC1(C)[C@H]2Cc3c(O)cccc3[C@]1(C)CCN2C(=O)N1CCCC2(CCCNC2=O)C1 (stereo partly drawn) [Example 43],-45
2,CC1(C)[C@H]2Cc3c(O)cccc3[C@]1(C)CCN2C(=O)N1CCC(CO)CC1 [Example 25],-43
3,CC1(C)[C@H]2Cc3c(O)cccc3[C@]1(C)CCN2C(=O)N1CC(O)C1 [Example 24],70
4,COC(=O)CC1(c2ccccc2)CCN(C(=O)N2CC[C@@]3(C)c4ccccc4C[C@@H]2C3(C)C)C1 (stereo partly drawn) [Example 75],26
5,C[C@@H]1[C@H]2Cc3ccc(C#N)cc3[C@]1(C)CCN2C(=O)N1CCCCC1 [Example 21],-28
6,CC1(C)[C@H]2Cc3c(O)cccc3[C@]1(C)CCN2C(=O)N1CCc2ccc(O)cc2C1 [Example 58],-37
7,CC1(C)[C@H]2Cc3c(OCc4ccccc4)cccc3[C@]1(C)CCN2C(=O)N1CCCCC1 [Example 32],82
8,"CC1(C)[C@H]2Cc3cc(C#N)ccc3[C@]1(C)CCN2C(=O)N1CCCCC1 [Example 36, (2R,6S)-6,11,11-Trimethyl-3-(piperidine-1-carbonyl)-1,2,3,4,5,6-hexahydro-2,6-methano-benzo[d]azocine-9-carbonitrile]",-31
9,CC1(C)[C@H]2Cc3c(O)cccc3[C@]1(C)CCN2C(=O)N1CCc2ccccc2C1 [Example 11],18
10,CC(C)(C)C1COc2ccccc2N1C(=O)N1CC[C@@]2(C)c3cccc(O)c3C[C@@H]1C2(C)C (stereo partly drawn) [Example 51],94
11,"CC1(C)[C@H]2Cc3c(O)cccc3[C@]1(C)CCN2C(=O)N1CCCCC1 [Example 1, [(2R,6S)-10-Hydroxy-6,11,11-trimethyl-1,2,5,6-tetrahydro-4H-2,6-methano-benzo[d]azocin-3-yl]-piperidin-1-yl-methanone]",-46
12,CC1(C)[C@H]2Cc3c(O)cccc3[C@]1(C)CCN2C(=O)N1CCCc2ccccc21 [Example 16],-41
13,CC(C)(O)C1CCN(C(=O)N2CC[C@@]3(C)c4ccccc4C[C@@H]2C3(C)C)CC1 [Example 65],2
14,CC1(C)[C@H]2Cc3c(O)cccc3[C@]1(C)CCN2C(=O)N1CCC(C(N)=O)CC1 [Example 50],-20
15,CC1CCN(C(=O)N2CC[C@@]3(C)c4cccc(O)c4C[C@@H]2C3(C)C)CC1 [Example 9],-14
